Assays:
embryos = test: Group embryo culture in 20% oxygen, blastocyst cell numbers by differential staining; assay type: cell-based, mice; conditions: 20% O2; for optimal dose (dose that resulted in significantly higher cell numbers): single compound
Experimental: F1 virgin hybrid female mice (C57BL/6×CBA) at 3-4 weeks old were intraperitoneally injected with 5 IU of pregnant mare's serum gonadotrophin. 48 hours later 5 IU of human chorulon gonadotrophin was administered and the female mice mated with F1 male mice >12 weeks old. Successful mating was confirmed by the presence of a vaginal mucus plug the following morning. Pronucleate oocytes were collected 22 hours after hCG injection, in pre-warmed handling medium (G-MOPS) supplemented with 5 mg/ml human sera albumin. Cumulus cells were denuded from the oocytes with GMOPS containing 300 IU/ml hyaluronidase. All embryos were washed twice in G-MOPS media and once in G-1™ medium prior to allocation for culture. Animals were housed in 12 hour light-day photoperiod with food and water available ad libitum.
Embryos were cultured in groups of 10 in 20 ul drops of media under paraffin oil in 6% CO2 in air (atmospheric oxygen ˜20%) or at 6% CO2 5% oxygen at 37° C. in a humidified multi gas incubator (Sanyo MCOK-5M[RC], Japan). Embryos were cultured in G-1™ medium (G-1™ with HSA-Solution™, Vitrolife) for 48 hours and then for a further 48 hours in G-2™ medium (G-2™ with HSA-Solution™, Vitrolife). […] All cultures were performed in 35 mm petri dishes (Falcon, BD Biosciences).
Differential staining of embryos was performed by techniques commonly known in the art to determine the allocation of cells to the inner cell mass (ICM) and trophectoderm (TE) on day 5 (e.g. in the blastocyst). Briefly, after zona removal using pronase, embryos were treated with a complement reaction which labels the in TE nuclei with propidium iodide and leaves the ICM intact and unlabelled. Following bisbenzimide treatment, all nuclei were stained. Embryos were whole-mounted in glycerol and imaged using an inverted fluorescence microscope (Nikon Eclipse TS100) fitted with a digital camera (Nikon digital sight DS-Fi1) and nuclei counted using imaging software ImageJ.
Embryos cultured in control groups were grown in G-™1 and G-2™ medium supplemented with HSA 5 mg/ml (HSA, Vitrolife). Embryos in treatment groups were similarly cultured with Acetyl Carnitine, Acetyl Cysteine or α-Lipoic acid Sigma Aldrich, USA) supplemented in the G-1™ and G-2™ medium at doses of 1, 10 and 100 μM and supplemented with HSA as the control group. […] The “total mean” means the average total number of cells in the embryo (including inner cell mass and trophectoderm) at day 5.
Embryos cultured in control groups were grown in G-1™ and G-2™ medium supplemented with HSA-Solution™ 5 mg/ml. Embryos in treatment groups were similarly cultured with 10 μM Acetyl Carnitine-10 μM Acetyl Cysteine, 10 μM Acetyl Carnitine-5 μM Lipoic acid, 10 μM Acetyl Cysteine-5 μM Lipoic acid, the triple cocktail of 10 μM Acetyl Carnitine-10 μM Acetyl Cysteine 5 μM Lipoic acid supplemented in the G-1™ and G-2™ medium and supplemented with HSA.

glutathione (GSH) = test: BSO/MCB probe dosage optimisation and verification of MCB specificity to glutathione; assay type: cell-based, mice
Experimental: Embryos were cultured in groups of 10 in 20 ul drops of media under paraffin oil (Ovoil, Vitrolife) in 6% CO2, 20% O2 74% N2 at 37° C. in a humidified multi gas incubator (Sanyo MCOK-5M[RC], Japan). Half of the embryos were allocated to the control group and the other half to the treatment group. Control group embryos were cultured in G-1™ medium (G-1™ with HSA-Solution™, Vitrolife) […]. Treatment group embryos were likewise cultured with the optimal triple antioxidant dose supplemented in the G-1™ medium (as determined in Example 2).
Immediately after collection, pronucleate control embryos were incubated in G-1™ medium spiked with BSO at doses of 0, 50, 100, 200, 400, 800, 1600 μM for 4 hours at 6% CO2, 20% O2 74% N2 at 37° C. Embryos were rinsed thoroughly in G-1™ with HSA-Solution™ media and placed individually in 2 μl drops of GMOPS with HSA-Solution™ (G-MOPS™ Plus, Vitrolife AB, Sweden) made on glass bottom dishes (Fluorodish, Coherent Scientific, Australia) and overlayed with paraffin oil (Ovoil, Vitrolife) for fluorescence imaging. Optimal dosage was determined by recording the fluorescence at 360±40 nm/460±40 nm excitation/emission wavelengths under a fluorescence microscope (Nikon Eclipse TS100). Results were calculated by subtracting the values of blank (embryos with no BSO exposure) and basal levels of the culture media from the fluorescence recorded. […]

## CC(=O)O[C@H](CC(=O)[O-])C[N+](C)(C)C [Acetyl Carnitine, acetyl-L-carnitine]
embryos; 1 μM in G-1 and G-2 medium
  Total Mean (average total number of cells in the embryo at day 5): 95.85
embryos; 10 μM in G-1 and G-2 medium
  Total Mean (average total number of cells in the embryo at day 5): 107.83
embryos; 30 μM in G-1 and G-2 medium
  Total Mean (average total number of cells in the embryo at day 5): 86.93
embryos; 1000 μM in G-1 and G-2 medium
  Total Mean (average total number of cells in the embryo at day 5): 67.41
embryos
  optimal dose (dose that resulted in significantly higher cell numbers): 10 µM

## CC(=O)N[C@@H](CS)C(=O)O [Acetyl Cysteine, N-acetyl-L-cysteine]
embryos; 1 μM in G-1 and G-2 medium
  Total Mean (average total number of cells in the embryo at day 5): 81.92
embryos; 10 μM in G-1 and G-2 medium
  Total Mean (average total number of cells in the embryo at day 5): 109.29
embryos; 30 μM in G-1 and G-2 medium
  Total Mean (average total number of cells in the embryo at day 5): 104.38
embryos; 1000 μM in G-1 and G-2 medium
  Total Mean (average total number of cells in the embryo at day 5): 95.17
embryos
  optimal dose (dose that resulted in significantly higher cell numbers): 10 µM

## CCCCS(=N)(=O)CCC(N)C(=O)O (centres unmarked) [BSO, buthionine sulfoximine]
Glutathione (GSH); 200 μM BSO, 80 μM MCB
  MCB fluorescence, BSO treated versus non-BSO treated group: no significant differences
Glutathione (GSH); pre-treated with 200 μM BSO, then 10 μM/ml or 40 μmol/ml MCB
  MCB fluorescence compared to groups treated with MCB only: significantly reduced fluorescence

## O=C(O)CCCCC1CCSS1 (stereo not drawn) [lipoic acid, α-lipoic acid]
embryos; 5 μM in G-1 and G-2 medium
  Total Mean (average total number of cells in the embryo at day 5): 90.2
embryos; 10 μM in G-1 and G-2 medium
  Total Mean (average total number of cells in the embryo at day 5): 91.3
embryos; 20 μM in G-1 and G-2 medium
  Total Mean (average total number of cells in the embryo at day 5): 94
embryos; 80 μM in G-1 and G-2 medium
  Total Mean (average total number of cells in the embryo at day 5): 34.0
embryos
  optimal dose (dose that resulted in significantly higher cell numbers): 5 µM

Reference: patent US11639494B2, “Culture medium” (Vitrolife Sweden AB, priority 2015, dated 2023)
